Data from the NIST ThermoML archive (doi:10.1016/j.jct.2007.06.014).
Numbers after ± are expanded uncertainties.

Details: Liquid, Bellows volumetry

CCCC [butane]
mass density [kg/m3]
Details	380 K	400 K	420 K	440 K
3000 kPa	463.27 ± 0.83	–	–	–
5000 kPa	474.65 ± 0.85	437.19 ± 0.79	–	–
10000 kPa	494.93 ± 0.89	466.97 ± 0.84	436.16 ± 0.79	401.28 ± 0.72
20000 kPa	521.9 ± 0.94	500.93 ± 0.9	479.15 ± 0.86	457.43 ± 0.82
30000 kPa	–	522.83 ± 0.94	504.89 ± 0.91	487.23 ± 0.88
40000 kPa	555.85 ± 1	539.73 ± 0.97	523.9 ± 0.94	508.57 ± 0.92
50000 kPa	–	553.54 ± 1	539.08 ± 0.97	525.26 ± 0.95
60000 kPa	579.32 ± 1	565.44 ± 1	551.8 ± 0.99	539.13 ± 0.97
70000 kPa	–	575.77 ± 1	563.07 ± 1	551.03 ± 0.99
80000 kPa	597.57 ± 1.1	585.08 ± 1.1	572.94 ± 1	561.56 ± 1
90000 kPa	–	593.33 ± 1.1	581.86 ± 1.1	571.14 ± 1
100000 kPa	612.79 ± 1.1	601.18 ± 1.1	589.89 ± 1.1	579.66 ± 1
120000 kPa	625.93 ± 1.1	614.9 ± 1.1	604.27 ± 1.1	594.85 ± 1.1
140000 kPa	637.29 ± 1.1	627.05 ± 1.1	617.11 ± 1.1	608.04 ± 1.1
160000 kPa	647.82 ± 1.2	637.77 ± 1.1	628.25 ± 1.1	619.73 ± 1.1
180000 kPa	657.28 ± 1.2	647.6 ± 1.2	638.65 ± 1.1	630.34 ± 1.1
200000 kPa	665.98 ± 1.2	656.49 ± 1.2	647.73 ± 1.2	639.98 ± 1.1
